The term IC50 denotes the concentration needed to halve the response being measured. High values mean weaker potency, low ones greater potency. For orientation: Kd means the concentration at which binding is half-saturated. Higher therefore signals lower affinity.

Peptide text beside a SMILES is read from it.

In the first experiment the target is soluble HLA-A*0201 molecules (Homo sapiens, UniProt P04439, D140Y/D185E/D98H/E176V/E277Q/G131W/G231S/I119V/I121R/I166T/I218V/L300P/L318F/N151K/N90K/P208A/P217A/Q86G/Q94H/R138H/R169H/T345S). Nature of the experiment: Binding affinity of synthetic peptides to soluble HLA-A*0201 molecules.
Settings: not given
For the molecule `CC(C)C[C@H](NC(=O)[C@@H](N)Cc1ccccc1)C(=O)N[C@H](C(=O)N[C@@H](CS)C(=O)N[C@H](C(=O)N[C@@H](CC(=O)O)C(=O)N[C@@H](CCCNC(=N)N)C(=O)N[C@@H](CO)C(=O)N[C@H](C(=O)O)C(C)C)[C@@H](C)O)[C@@H](C)O` [VP11/12_66–74] (H-FLTCTDRSV-OH), the IC50 is 83 nM and binding was characterised by a dissociation constant (Kd) of 81 nM.
For `CC[C@H](C)[C@H](NC(=O)[C@@H](N)CCCNC(=N)N)C(=O)N[C@@H](CCC(N)=O)C(=O)N[C@@H](CCC(N)=O)C(=O)N[C@@H](Cc1ccc(O)cc1)C(=O)N[C@@H](CCSC)C(=O)N[C@@H](Cc1ccccc1)C(=O)N[C@@H](Cc1ccccc1)C(=O)N[C@@H](CCSC)C(=O)O` [VP11/12_197–205] (H-RIQQYMFFM-OH), the IC50 was determined as 81 nM and the Kd was determined as 83 nM.
The corresponding values for `CC(C)C[C@H](NC(=O)[C@H](CC(C)C)NC(=O)[C@H](CCC(=O)O)NC(=O)[C@H](CC(N)=O)NC(=O)[C@H](CC(C)C)NC(=O)[C@@H](N)CCCNC(=N)N)C(=O)N[C@@H](C)C(=O)N[C@@H](Cc1ccc(O)cc1)C(=O)N[C@H](C(=O)O)C(C)C` [VP11/12_220–228] (H-RLNELLAYV-OH) are 709 nM and 709 nM.
`CSCC[C@H](N)C(=O)N[C@@H](CC(C)C)C(=O)N[C@@H](Cc1c[nH]c2ccccc12)C(=O)N[C@H](C(=O)N[C@H](C(=O)N[C@@H](CC(=O)O)C(=O)N[C@@H](CCCCN)C(=O)N[C@@H](Cc1c[nH]cn1)C(=O)N[C@H](C(=O)O)C(C)C)[C@@H](C)O)[C@@H](C)O` [VP11/12_238–246] (H-MLWTTDKHV-OH) registered an IC50 of 1290 nM.
`CC(C)C[C@H](NC(=O)[C@H](CCCCN)NC(=O)[C@@H](NC(=O)[C@H](CC(C)C)NC(=O)[C@H](CC(C)C)NC(=O)[C@H](C)NC(=O)[C@H](CO)NC(=O)[C@H](CC(C)C)NC(=O)[C@H](C)N)[C@@H](C)O)C(=O)O` [VP11/12_702–710] (H-ALSALLTKL-OH): the IC50 was determined as 313 nM and the Kd was 313 nM.

The experiment is the same for the next values; noted with them: soluble HLA-A*0201 molecules.
ILTQYWKYL [VP11/12_127–135]: the “binding affinity to soluble HLA-A*0201 molecules (in words)” value is “did not bind”.
